How the values were obtained:
Type in all cases: in vivo
kochia (Kochia scoparia) = test: Test B pre-/postemergence plant response
Method in brief: (§1)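 Evaluation is visual, about 10 days after application, rating injury from 0 (none) to 100 (complete control) relative to untreated controls. Application was a preemergence soil spray on seeded pots or a postemergence spray on one- to two-leaf plants.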

[1] = tested on: Italian ryegrass (Lolium multiflorum); test: Test B pre-/postemergence plant response
Method in brief: as §1

[2] = tested on: ragweed (common ragweed, Ambrosia elatior); test: Test B pre-/postemergence plant response
Method in brief: as §1

[3] = tested on: oilseed rape (Brassica napus); test: Test D pre-/postemergence plant response; settings: Postemergence; for Oilseed Rape plant response rating: 31 g ai/ha, scale 0 to 100 (0 no effect, 100 complete control); for Plant response rating, Oilseed Rape: scale 0 to 100, 0 no effect, 100 complete control
Method in brief: (§2)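 Seeds were planted in a loam and sand blend and sprayed preemergence. In parallel, seedlings grown in peat moss/vermiculite medium were sprayed postemergence at 2 to 18 cm height. Both used a surfactant-containing non-phytotoxic solvent. Greenhouse ratings at 13 to 15 days used a 0–100 control scale.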

[4] = tested on: yellow nutsedge (Cyperus esculentus); test: Test D pre-/postemergence plant response; settings: Postemergence; for Nutsedge, Yellow plant response rating: 31 g ai/ha, scale 0 to 100 (0 no effect, 100 complete control); for Plant response rating, Nutsedge, Yellow: scale 0 to 100, 0 no effect, 100 complete control
Method in brief: as §2

[5] = tested on: barnyardgrass (Echinochloa crus-galli); test: Test D pre-/postemergence plant response; settings: Postemergence; for Barnyardgrass plant response rating: scale 0 to 100 (0 no effect, 100 complete control); for Plant response rating, Barnyardgrass: scale 0 to 100, 0 no effect, 100 complete control
Method in brief: as §2

corn (Zea mays) = test: Test D pre-/postemergence plant response; settings: Postemergence; for Corn plant response rating: scale 0 to 100 (0 no effect, 100 complete control); for Plant response rating, Corn: scale 0 to 100, 0 no effect, 100 complete control
Method in brief: as §2

[6] = tested on: giant foxtail (Setaria faberii); test: Test D pre-/postemergence plant response; settings: Postemergence; for Foxtail, Giant plant response rating: scale 0 to 100 (0 no effect, 100 complete control); for Plant response rating, Foxtail, Giant: scale 0 to 100, 0 no effect, 100 complete control
Method in brief: as §2

[7] = tested on: large (Lg) crabgrass (Digitaria sanguinalis); test: Test D pre-/postemergence plant response; settings: Postemergence; for Crabgrass, Large plant response rating: scale 0 to 100 (0 no effect, 100 complete control); for Plant response rating, Crabgrass, Large: scale 0 to 100, 0 no effect, 100 complete control
Method in brief: as §2

[8] = tested on: pigweed (Amaranthus retroflexus); test: Test D pre-/postemergence plant response; settings: Postemergence; for Pigweed plant response rating: 31 g ai/ha, scale 0 to 100 (0 no effect, 100 complete control); for Plant response rating, Pigweed: scale 0 to 100, 0 no effect, 100 complete control
Method in brief: as §2

[9] = tested on: Italian ryegrass (Lolium multiflorum); test: Test D pre-/postemergence plant response; settings: Postemergence; for Ryegrass, Italian plant response rating: 31 g ai/ha, scale 0 to 100 (0 no effect, 100 complete control); for Plant response rating, Ryegrass, Italian: scale 0 to 100, 0 no effect, 100 complete control
Method in brief: as §2

[10] = tested on: blackgrass (Alopecurus myosuroides); test: Test D pre-/postemergence plant response; settings: Postemergence; for Blackgrass plant response rating: scale 0 to 100 (0 no effect, 100 complete control); for Plant response rating, Blackgrass: scale 0 to 100, 0 no effect, 100 complete control
Method in brief: as §2

[11] = tested on: ragweed (common ragweed, Ambrosia elatior); test: Test D pre-/postemergence plant response; settings: Postemergence; for Ragweed plant response rating: 31 g ai/ha, scale 0 to 100 (0 no effect, 100 complete control); for Plant response rating, Ragweed: scale 0 to 100, 0 no effect, 100 complete control
Method in brief: as §2

[12] = tested on: galium (catchweed bedstraw, Galium aparine); test: Test D pre-/postemergence plant response; settings: Postemergence; for Galium plant response rating: 31 g ai/ha, scale 0 to 100 (0 no effect, 100 complete control); for Plant response rating, Galium: scale 0 to 100, 0 no effect, 100 complete control
Method in brief: as §2

[13] = 125 g ai/ha, postemergence, 0 to 100 scale, 0 no effect, 100 complete control
[14] = Postemergence, 500 g ai/ha, 0 to 100 scale (0 no effect, 100 complete control)
[15] = Preemergence, 125 g ai/ha, 0 to 100 scale (0 no effect, 100 complete control)
[16] = Preemergence, 500 g ai/ha, 0 to 100 scale where 0 is no effect and 100 is complete control

FC(F)(F)c1cc(-c2c(Cl)cccc2Oc2ncc(Cl)cn2)no1 [Compound 169]
55: Plant response rating, Foxtail, Giant ([6]; 125 g ai/ha)
90: Plant response rating, Kochia (kochia (Kochia scoparia); [13]) | Plant response rating, Kochia (kochia (Kochia scoparia); [14]) | Plant response rating, Kochia (kochia (Kochia scoparia); [16])
10: Ragweed plant response rating [2, 15] | Plant response rating, Oilseed Rape ([3]; 62 g ai/ha) | Plant response rating, Corn (corn (Zea mays); 62 g ai/ha) | Plant response rating, Corn (corn (Zea mays); 125 g ai/ha) | Plant response rating, Crabgrass, Large ([7]; 62 g ai/ha) | Plant response rating, Crabgrass, Large ([7]; 125 g ai/ha)
50: Plant response rating, Ryegrass, Italian [1, 14]
30: Plant response rating, Ragweed [2, 14]
80: Pigweed plant response rating [8] | Plant response rating, Pigweed ([8]; 62 g ai/ha)
20: Plant response rating, Ryegrass, Italian [1, 13] | Plant response rating, Ryegrass, Italian [1, 16] | Plant response rating, Ragweed [2, 13] | Plant response rating, Ragweed [2, 16]
98: Plant response rating, Pigweed ([8]; 125 g ai/ha)
35: Plant response rating, Ragweed ([11]; 125 g ai/ha)
15: Plant response rating, Ryegrass, Italian ([9]; 125 g ai/ha)
70: Kochia plant response rating (kochia (Kochia scoparia); [15]) | Galium plant response rating [12] | Plant response rating, Galium ([12]; 62 g ai/ha)
60: Plant response rating, Oilseed Rape ([3]; 125 g ai/ha)
0: Ryegrass, Italian plant response rating [1, 15] | Nutsedge, Yellow plant response rating [4] | Plant response rating, Nutsedge, Yellow ([4]; 62 g ai/ha) | Corn plant response rating (corn (Zea mays); 16 g ai/ha) | Foxtail, Giant plant response rating ([6]; 16 g ai/ha) | Ryegrass, Italian plant response rating [9] | Blackgrass plant response rating ([10]; 16 g ai/ha) | Blackgrass plant response rating ([10]; 31 g ai/ha) | Plant response rating, Blackgrass ([10]; 62 g ai/ha)
75: Plant response rating, Galium ([12]; 125 g ai/ha)
25: Plant response rating, Foxtail, Giant ([6]; 62 g ai/ha) | Plant response rating, Blackgrass ([10]; 125 g ai/ha) | Plant response rating, Ragweed ([11]; 62 g ai/ha)
5: Oilseed Rape plant response rating [3] | Plant response rating, Nutsedge, Yellow ([4]; 125 g ai/ha) | Barnyardgrass plant response rating ([5]; 16 g ai/ha) | Barnyardgrass plant response rating ([5]; 31 g ai/ha) | Plant response rating, Barnyardgrass ([5]; 62 g ai/ha) | Plant response rating, Barnyardgrass ([5]; 125 g ai/ha) | Corn plant response rating (corn (Zea mays); 31 g ai/ha) | Foxtail, Giant plant response rating ([6]; 31 g ai/ha) | Crabgrass, Large plant response rating ([7]; 16 g ai/ha) | Crabgrass, Large plant response rating ([7]; 31 g ai/ha) | Plant response rating, Ryegrass, Italian ([9]; 62 g ai/ha) | Ragweed plant response rating [11]

FC(F)(F)c1cc(-c2c(Br)cccc2Oc2ncc(Cl)cn2)no1 [Compound 170]
0: Plant response rating, Ryegrass, Italian [1, 13] | Ryegrass, Italian plant response rating [1, 15] | Barnyardgrass plant response rating ([5]; 16 g ai/ha) | Barnyardgrass plant response rating ([5]; 31 g ai/ha) | Ryegrass, Italian plant response rating [9] | Blackgrass plant response rating ([10]; 16 g ai/ha) | Blackgrass plant response rating ([10]; 31 g ai/ha)
25: Plant response rating, Oilseed Rape ([3]; 125 g ai/ha)
80: Plant response rating, Kochia (kochia (Kochia scoparia); [16]) | Plant response rating, Galium ([12]; 125 g ai/ha)
40: Plant response rating, Oilseed Rape ([3]; 62 g ai/ha) | Plant response rating, Foxtail, Giant ([6]; 62 g ai/ha) | Plant response rating, Foxtail, Giant ([6]; 125 g ai/ha)
65: Plant response rating, Galium ([12]; 62 g ai/ha)
50: Plant response rating, Ragweed [2, 14] | Galium plant response rating [12]
70: Plant response rating, Kochia (kochia (Kochia scoparia); [13])
98: Plant response rating, Pigweed ([8]; 62 g ai/ha) | Plant response rating, Pigweed ([8]; 125 g ai/ha)
90: Pigweed plant response rating [8]
30: Kochia plant response rating (kochia (Kochia scoparia); [15]) | Foxtail, Giant plant response rating ([6]; 31 g ai/ha)
20: Plant response rating, Ryegrass, Italian [1, 14] | Plant response rating, Ryegrass, Italian [1, 16] | Ragweed plant response rating [2, 15]
100: Plant response rating, Kochia (kochia (Kochia scoparia); [14])
5: Oilseed Rape plant response rating [3] | Nutsedge, Yellow plant response rating [4] | Plant response rating, Nutsedge, Yellow ([4]; 62 g ai/ha) | Plant response rating, Barnyardgrass ([5]; 62 g ai/ha) | Plant response rating, Barnyardgrass ([5]; 125 g ai/ha) | Corn plant response rating (corn (Zea mays); 16 g ai/ha) | Corn plant response rating (corn (Zea mays); 31 g ai/ha) | Plant response rating, Corn (corn (Zea mays); 62 g ai/ha) | Plant response rating, Corn (corn (Zea mays); 125 g ai/ha) | Foxtail, Giant plant response rating ([6]; 16 g ai/ha) | Crabgrass, Large plant response rating ([7]; 16 g ai/ha) | Crabgrass, Large plant response rating ([7]; 31 g ai/ha) | Plant response rating, Crabgrass, Large ([7]; 62 g ai/ha) | Plant response rating, Ryegrass, Italian ([9]; 62 g ai/ha) | Plant response rating, Ryegrass, Italian ([9]; 125 g ai/ha) | Plant response rating, Blackgrass ([10]; 62 g ai/ha) | Plant response rating, Blackgrass ([10]; 125 g ai/ha) | Ragweed plant response rating [11]
10: Plant response rating, Ragweed [2, 13] | Plant response rating, Nutsedge, Yellow ([4]; 125 g ai/ha) | Plant response rating, Crabgrass, Large ([7]; 125 g ai/ha) | Plant response rating, Ragweed ([11]; 62 g ai/ha) | Plant response rating, Ragweed ([11]; 125 g ai/ha)
60: Plant response rating, Ragweed [2, 16]

— patent US10131652B2, “Pyrimidinyloxy benzene derivatives as herbicides” (E. I. DU PONT DE NEMOURS AND COMPANY, priority 2014, dated 2018)
